From patent US10934312B2, “Tricyclic heterocycle compounds useful as HIV integrase inhibitors” (Merck Sharp & Dohme Corp., priority 2016, dated 2021)

system: HIV-1 (NL4-3 strain); test: Assay for Inhibition of HIV Replication (VIKING, MT4-gag-GFP reporter cells); assay type: cell-based; conditions: 0% normal human serum; MT4-GFP cells infected with HIV-1 NL4-3; infected cells at 48 h / 24 h; read-out: VIKING IP50 (nM) with 0% NHS
Experimental: This assay may be useful for assessing the ability of a compound of the present invention to inhibit HIV replication. The assay is a kinetic assay that employs a reporter cell line (MT4-gag-GFP) to quantify the number of new cells infected in each round of replication.
MT4-GFP cells (250,000 cells/ml) are bulk-infected with HIV-1 (NL4-3 strain) at low multiplicity of infection (MOI) in RPMI+10% FBS for 24 hours. Cells are then washed once in RPMI+10% FBS and resuspended in RPMI+0% normal human serum (NHS). Test compounds are serial-diluted in DMSO on ECHO. The infected MT4-GFP cells are added to a 384-well poly-D-lysine coated black plate with clear bottom in which the diluted test compounds are placed. The cells are seeded at 8,000 cells per well and the final DMSO concentration is adjusted to 0.4%. The infected cells (Green GFP cells) are then quantified at both 24 and 48 hours post incubation using Acumen eX3. Viral reproductive ratio (R0) is determined using the number of infected cells at 48 hours divided by the number of infected cells at 24 hours. Percent viral growth inhibition is calculated by [1-(R—Rtripledrug)/(RDMSO—Rtripledrug)]*100. Compound potency IP or IC50 may be determined using a 4-parameter dose response curve analysis.

In order of rising IC50:
1. COC1CN2CN(C)C(=O)c3c(O)c(=O)c(C(=O)NCc4cccc(Cl)c4F)c1n32 (single isomer, unassigned) [Compound 31]  0.5 nM
2. COC1CN2CN(C)C(=O)c3c(O)c(=O)c(C(=O)NCc4ccc(F)c(Cl)c4)c1n32 (single isomer, unassigned) [Compound 33]  0.8 nM
3. CCN1CN2CC(OC)c3c(C(=O)NCc4ccc(F)c(Cl)c4F)c(=O)c(O)c(n32)C1=O (single isomer, unassigned) [Compound 25]  0.9 nM
4. COCCN1CN2CC(OC)c3c(C(=O)NCc4cccc(Cl)c4F)c(=O)c(O)c(n32)C1=O (single isomer, unassigned) [Compound 13]  1 nM
5. COCCN1CN2CC(OC)c3c(C(=O)NCc4ccc(F)c(Cl)c4F)c(=O)c(O)c(n32)C1=O (single isomer, unassigned) [Compound 11]  1.1 nM
6. COC1CN2CN(CC3CC3)C(=O)c3c(O)c(=O)c(C(=O)NCc4cccc(Cl)c4F)c1n32 (single isomer, unassigned) [Compound 20]  1.2 nM
7. CCN1CN2CC(OC)c3c(C(=O)NCc4cccc(Cl)c4F)c(=O)c(O)c(n32)C1=O (single isomer, unassigned) [Compound 27]  1.2 nM
8. COC1CN2CN(C)C(=O)c3c(O)c(=O)c(C(=O)NCc4cccc(Cl)c4F)c1n32 (single isomer, unassigned) [Compound 30]  1.5 nM
9. COCCN1CN2CC(OC)c3c(C(=O)NCc4ccc(F)cc4)c(=O)c(O)c(n32)C1=O (single isomer, unassigned) [Compound 15]  1.9 nM
10. COCCN1CN2CC(OC)c3c(C(=O)NCc4cccc(Cl)c4F)c(=O)c(O)c(n32)C1=O (single isomer, unassigned) [Compound 12]  2.3 nM
11. COC1CN2n3c(c(O)c(=O)c(C(=O)NCc4ccc(F)cc4F)c31)C(=O)N(C)C21CCOC1 (stereo not drawn) [Compound 39]  2.4 nM
12. COC1CN2n3c(c(O)c(=O)c(C(=O)NCc4ccc(F)cc4F)c31)C(=O)N(C)C21CCOC1 (stereo not drawn) [Compound 40]  3.8 nM
13. COCCN1CN2CC(OC)c3c(C(=O)NCc4ccc(F)cc4)c(=O)c(O)c(n32)C1=O (single isomer, unassigned) [Compound 14]  4.6 nM
14. COC1CN2n3c(c(O)c(=O)c(C(=O)NCc4ccc(F)cc4F)c31)C(=O)N(C)C21CCOC1 (stereo not drawn) [Compound 37]  8.5 nM

same assay, conditions: Human immunodeficiency virus 1, NL43, 0% normal human serum; MT4-GFP cells infected with HIV-1 NL4-3; infected cells at 48 h / 24 h; read-out: VIKING IP50 (nM) with 0% NHS

In order of falling IC50:
1. COC1CN2CN(C(C)C)C(=O)c3c(O)c(=O)c(C(=O)NCc4ccc(F)cc4F)c1n32 (stereo not drawn) [Compound 7]  13.3 nM
2. CCN1Cn2ccc3c(C(=O)NCc4ccc(F)cc4F)c(=O)c(O)c(n32)C1=O [Compound 34]  11.5 nM
3. CCN1CN2CCCc3c(C(=O)NCc4ccc(F)cc4F)c(=O)c(O)c(n32)C1=O [Compound 36]  11.4 nM
4. COC1CN2CN(C)C(=O)c3c(O)c(=O)c(C(=O)NCc4ccc(F)cc4F)c1n32 (single isomer, unassigned) [Compound 29]  9.9 nM
5. CCN1CN2CC(OC)c3c(C(=O)NCc4ccc(F)cc4F)c(=O)c(O)c(n32)C1=O (single isomer, unassigned) [Compound 23]  4.1 nM
6. CN1CN2CCc3c(C(=O)NCc4c(F)cc(F)cc4F)c(=O)c(O)c(n32)C1=O [Compound 41]  2.9 nM
7. COC1CN2n3c(c(O)c(=O)c(C(=O)NCc4ccc(F)cc4F)c31)C(=O)N(C)C21CCOC1 (stereo not drawn) [Compound 38]  2.6 nM
8. COC1CN2CN(CC3CC3)C(=O)c3c(O)c(=O)c(C(=O)NCc4cccc(Cl)c4F)c1n32 (single isomer, unassigned) [Compound 19]  2.4 nM
9. CCN1CN2CCc3c(C(=O)NCc4ccc(F)cc4F)c(=O)c(O)c(n32)C1=O [Compound 35]  2.2 nM
10. CCN1CN2CC(OC)c3c(C(=O)NCc4ccc(F)cc4F)c(=O)c(O)c(n32)C1=O (stereo not drawn) [Compound 22]  2.1 nM
11. CC(C)N1CN2C(=O)N(C)Cc3c(C(=O)NCc4ccc(F)cc4F)c(=O)c(O)c(n32)C1=O [Compound 4]  2 nM
12. CN1CN2CCc3c(C(=O)NCc4c(F)ccc(Cl)c4F)c(=O)c(O)c(n32)C1=O [Compound 43]  1.8 nM
13. COCCN1CN2C(=O)N(C)Cc3c(C(=O)NCc4ccc(F)cc4F)c(=O)c(O)c(n32)C1=O [Compound 5]  1.7 nM
14. CN1CN2CCc3c(C(=O)NCc4ccc(F)cc4F)c(=O)c(O)c(n32)C1=O [Compound 42]  1.6 nM
15. COCCN1CN2CC(OC)c3c(C(=O)NCc4ccccc4F)c(=O)c(O)c(n32)C1=O (single isomer, unassigned) [Compound 16]  1.5 nM
16. CCN1CN2CC(OC)c3c(C(=O)NCc4ccc(F)c(Cl)c4F)c(=O)c(O)c(n32)C1=O (single isomer, unassigned) [Compound 24]  1.5 nM
17. CCN1CN2CC(OC)c3c(C(=O)NCc4cccc(Cl)c4F)c(=O)c(O)c(n32)C1=O (single isomer, unassigned) [Compound 26]  1.5 nM
18. COCCN1CN2CC(OC)c3c(C(=O)NCc4ccc(F)cc4F)c(=O)c(O)c(n32)C1=O (single isomer, unassigned) [Compound 9]  1.4 nM
19. COCCN1CN2CC(OC)c3c(C(=O)NCc4ccc(F)c(Cl)c4F)c(=O)c(O)c(n32)C1=O (single isomer, unassigned) [Compound 10]  1.4 nM
20. COC1CN2CN(C)C(=O)c3c(O)c(=O)c(C(=O)NCc4ccc(F)c(Cl)c4)c1n32 (single isomer, unassigned) [Compound 32]  1.2 nM
21. COC1CN2CN(CC3CC3)C(=O)c3c(O)c(=O)c(C(=O)NCc4ccc(F)c(Cl)c4)c1n32 (single isomer, unassigned) [Compound 21]  1 nM
22. COC1CN2CN(CC3CC3)C(=O)c3c(O)c(=O)c(C(=O)NCc4ccc(F)cc4F)c1n32 (single isomer, unassigned) [Compound 18]  0.4 nM
